Legend:
Type in all cases: in vivo
[1] = system: barnyardgrass (Echinochloa crus-galli); assay: Test A preemergence barnyardgrass; conditions: Echinochloa crus-galli, pre-emergence, 240 h, 0 to 100 scale, 0 no effect, 100 complete control, read-out: Barnyardgrass plant response rating; for pest or weed control at 125 g/ha: 125 g ai/ha; for pest or weed control at 500 g/ha: 500 g ai/ha
Method in brief: (§1)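 Greenhouse pot test: chemicals formulated with surfactant in non-phytotoxic solvent, sprayed on soil at seeding (pre) or on 1–2 leaf seedlings of 2–10 cm (post). Rating ~10 d later, visual, 0 = no effect to 100 = complete control, relative to untreated controls.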

[2] = system: kochia (Kochia scoparia); assay: Test A preemergence kochia; conditions: Bassia scoparia, pre-emergence, 240 h, 0 to 100 scale, 0 no effect, 100 complete control, read-out: Kochia plant response rating; for pest or weed control at 125 g/ha: 125 g ai/ha; for pest or weed control at 500 g/ha: 500 g ai/ha
Method in brief: as §1

[3] = system: ragweed (common ragweed, Ambrosia elatior); assay: Test A preemergence ragweed; conditions: Ambrosia artemisiifolia, pre-emergence, 240 h, 0 to 100 scale, 0 no effect, 100 complete control, read-out: Ragweed plant response rating; for pest or weed control at 125 g/ha: 125 g ai/ha; for pest or weed control at 500 g/ha: 500 g ai/ha
Method in brief: as §1

[4] = system: ryegrass, Italian (Italian ryegrass, Lolium multiflorum); assay: Test A preemergence ryegrass, Italian; conditions: Lolium multiflorum, pre-emergence, 240 h, 0 to 100 scale, 0 no effect, 100 complete control, read-out: Ryegrass, Italian plant response rating; for pest or weed control at 125 g/ha: 125 g ai/ha; for pest or weed control at 500 g/ha: 500 g ai/ha
Method in brief: as §1

[5] = system: foxtail, giant (giant foxtail, Setaria faberii); assay: Test A preemergence foxtail, giant; conditions: Setaria faberi, pre-emergence, 240 h, 0 to 100 scale, 0 no effect, 100 complete control, read-out: Foxtail, Giant plant response rating; for pest or weed control at 125 g/ha: 125 g ai/ha; for pest or weed control at 500 g/ha: 500 g ai/ha
Method in brief: as §1

[6] = system: pigweed (Amaranthus retroflexus); assay: Test A preemergence pigweed; conditions: Amaranthus retroflexus, pre-emergence, 240 h, 0 to 100 scale, 0 no effect, 100 complete control, read-out: Pigweed plant response rating; for pest or weed control at 125 g/ha: 125 g ai/ha; for pest or weed control at 500 g/ha: 500 g ai/ha
Method in brief: as §1

[7] = system: barnyardgrass (Echinochloa crus-galli); assay: Test A postemergence barnyardgrass; conditions: Echinochloa crus-galli, post-emergence, 240 h, 0 to 100 scale, 0 is no effect, 100 is complete control, read-out: Plant response rating, Barnyardgrass; for pest or weed control at 125 g/ha: 125 g ai/ha; for pest or weed control at 500 g/ha: 500 g ai/ha
Method in brief: as §1

[8] = system: kochia (Kochia scoparia); assay: Test A postemergence kochia; conditions: Bassia scoparia, post-emergence, 240 h, 0 to 100 scale, 0 is no effect, 100 is complete control, read-out: Plant response rating, Kochia; for pest or weed control at 125 g/ha: 125 g ai/ha; for pest or weed control at 500 g/ha: 500 g ai/ha
Method in brief: as §1

[9] = system: ragweed (common ragweed, Ambrosia elatior); assay: Test A postemergence ragweed; conditions: Ambrosia artemisiifolia, post-emergence, 240 h, 0 to 100 scale, 0 is no effect, 100 is complete control, read-out: Plant response rating, Ragweed; for pest or weed control at 125 g/ha: 125 g ai/ha; for pest or weed control at 500 g/ha: 500 g ai/ha
Method in brief: as §1

[10] = system: ryegrass, Italian (Italian ryegrass, Lolium multiflorum); assay: Test A postemergence ryegrass, Italian; conditions: Lolium multiflorum, post-emergence, 240 h, 0 to 100 scale, 0 is no effect, 100 is complete control, read-out: Plant response rating, Ryegrass, Italian; for pest or weed control at 125 g/ha: 125 g ai/ha; for pest or weed control at 500 g/ha: 500 g ai/ha
Method in brief: as §1

[11] = system: foxtail, giant (giant foxtail, Setaria faberii); assay: Test A postemergence foxtail, giant; conditions: Setaria faberi, post-emergence, 240 h, 0 to 100 scale, 0 is no effect, 100 is complete control, read-out: Plant response rating, Foxtail, Giant; for pest or weed control at 125 g/ha: 125 g ai/ha; for pest or weed control at 500 g/ha: 500 g ai/ha
Method in brief: as §1

[12] = system: pigweed (Amaranthus retroflexus); assay: Test A postemergence pigweed; conditions: Amaranthus retroflexus, post-emergence, 240 h, 0 to 100 scale, 0 is no effect, 100 is complete control, read-out: Plant response rating, Pigweed; for pest or weed control at 125 g/ha: 125 g ai/ha; for pest or weed control at 500 g/ha: 500 g ai/ha
Method in brief: as §1

[13] = system: wheat (Triticum aestivum); assay: Test A postemergence wheat; conditions: Triticum aestivum, post-emergence, 240 h, 0 to 100 scale, 0 is no effect, 100 is complete control, read-out: Plant response rating, Wheat; for plant injury at 125 g/ha: 125 g ai/ha; for plant injury at 500 g/ha: 500 g ai/ha
Method in brief: as §1

[14] = system: corn (Zea mays); assay: Test A postemergence corn; conditions: Zea mays, post-emergence, 240 h, 0 to 100 scale, 0 is no effect, 100 is complete control; for Corn plant response rating (crop injury, 0 = no effect, 100 = complete kill) at 125 g/ha: 125 g ai/ha; for Corn plant response rating (crop injury, 0 = no effect, 100 = complete kill) at 500 g/ha: 500 g ai/ha
Method in brief: as §1

[15] = system: blackgrass (Alopecurus myosuroides); assay: Test A postemergence blackgrass; conditions: Alopecurus myosuroides, post-emergence, 240 h, 0 to 100 scale, 0 is no effect, 100 is complete control, read-out: Plant response rating, Blackgrass; for pest or weed control at 125 g/ha: 125 g ai/ha; for pest or weed control at 500 g/ha: 500 g ai/ha
Method in brief: as §1

[16] = system: galium (catchweed bedstraw, Galium aparine); assay: Test A postemergence galium; conditions: Galium, post-emergence, 240 h, 0 to 100 scale, 0 is no effect, 100 is complete control, read-out: Plant response rating, Galium; for pest or weed control at 125 g/ha: 125 g ai/ha; for pest or weed control at 500 g/ha: 500 g ai/ha
Method in brief: as §1

[17] = system: rice (Oryza sativa); assay: Test B flooded paddy test rice; conditions: Oryza sativa, Table B, Flood, 250 g ai/ha, scale 0 to 100, read-out: Plant response rating
Method in brief: (§2)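 Plants grown to the 2-leaf stage; pots flooded to 3 cm above soil at treatment, compound applied directly into paddy water, depth held throughout. Greenhouse 13 to 15 d, then visual evaluation against untreated controls.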

[18] = system: sedge, umbrella (small-flower umbrella sedge, Cyperus difformis); assay: Test B flooded paddy test sedge, umbrella; conditions: Cyperus difformis, Table B, Flood, 250 g ai/ha, scale 0 to 100, read-out: Plant response rating
Method in brief: as §2

[19] = system: ducksalad (Heteranthera limosa); assay: Test B flooded paddy test ducksalad; conditions: Heteranthera limosa, Table B, Flood, 250 g ai/ha, scale 0 to 100, read-out: Plant response rating
Method in brief: as §2

[20] = system: barnyardgrass (Echinochloa crus-galli); assay: Test B flooded paddy test barnyardgrass; conditions: Echinochloa crus-galli, Table B, Flood, 250 g ai/ha, scale 0 to 100, read-out: Plant response rating
Method in brief: as §2

SMILES	pest or weed control at 125 g/ha [1] [%]	pest or weed control at 500 g/ha [1] [%]	pest or weed control at 125 g/ha [2] [%]	pest or weed control at 500 g/ha [2] [%]	pest or weed control at 125 g/ha [3] [%]	pest or weed control at 500 g/ha [3] [%]	pest or weed control at 125 g/ha [4] [%]	pest or weed control at 500 g/ha [4] [%]	pest or weed control at 125 g/ha [5] [%]	pest or weed control at 500 g/ha [5] [%]	pest or weed control at 125 g/ha [6] [%]	pest or weed control at 500 g/ha [6] [%]	pest or weed control at 125 g/ha [7] [%]	pest or weed control at 500 g/ha [7] [%]	pest or weed control at 125 g/ha [8] [%]	pest or weed control at 500 g/ha [8] [%]	pest or weed control at 125 g/ha [9] [%]	pest or weed control at 500 g/ha [9] [%]	pest or weed control at 125 g/ha [10] [%]	pest or weed control at 500 g/ha [10] [%]	also measured
O=C1NCC[C@H](c2ccc(C(F)(F)F)cc2)[C@H]1C(=O)Nc1cccc(F)c1F [Compound 22, (3R,4S)—N-(2,3-difluorophenyl)-2-oxo-4-[4-(trifluoromethyl)phenyl]-3-piperidinecarboxamide]	90	90	70	80	60	80	20	60	90	90	20	50	80	90	40	60	50	50	40	70	pest or weed control at 125 g/ha [11]: 90%; pest or weed control at 500 g/ha [11]: 90%; pest or weed control at 125 g/ha [12]: 40%; pest or weed control at 500 g/ha [12]: 50%; plant injury at 125 g/ha [13]: 0%; plant injury at 500 g/ha [13]: 60%; Corn plant response rating (crop injury, 0 = no effect, 100 = complete kill) at 125 g/ha [14]: 0%; Corn plant response rating (crop injury, 0 = no effect, 100 = complete kill) at 500 g/ha [14]: 60%; pest or weed control at 125 g/ha [15]: 50%; pest or weed control at 500 g/ha [15]: 60%; pest or weed control at 125 g/ha [16]: 50%; pest or weed control at 500 g/ha [16]: 70%; plant injury at 250 g/ha [17]: 0%; pest or weed control at 250 g/ha [18]: 0%; pest or weed control at 250 g/ha [19]: 100%; pest or weed control at 250 g/ha [20]: 65%
O=C1NCC[C@H](c2cccc(C(F)(F)F)c2)[C@H]1C(=O)Nc1cccc(Cl)c1F [Compound 25, (3R,4S)—N-(3-chloro-2-fluorophenyl)-2-oxo-4-[3-(trifluoromethyl)phenyl]-3-piperidinecarboxamide]	90	90	0	0	0	0	0	50	90	90	0	0	80	80	0	0	0	0	30	40	pest or weed control at 125 g/ha [11]: 80%; pest or weed control at 500 g/ha [11]: 80%; pest or weed control at 125 g/ha [12]: 0%; pest or weed control at 500 g/ha [12]: 0%; plant injury at 125 g/ha [13]: 40%; plant injury at 500 g/ha [13]: 60%; Corn plant response rating (crop injury, 0 = no effect, 100 = complete kill) at 125 g/ha [14]: 20%; Corn plant response rating (crop injury, 0 = no effect, 100 = complete kill) at 500 g/ha [14]: 70%; pest or weed control at 125 g/ha [15]: 60%; pest or weed control at 500 g/ha [15]: 80%; pest or weed control at 125 g/ha [16]: 30%; pest or weed control at 500 g/ha [16]: 30%; plant injury at 250 g/ha [17]: 0%; pest or weed control at 250 g/ha [18]: 0%; pest or weed control at 250 g/ha [19]: 45%; pest or weed control at 250 g/ha [20]: 60%
